Reference: patent US20260217701A1, “SELECTIVE BET INHIBITORS AND USES THEREOF” (Tay Therapeutics Limited, priority 2022, published 2026)
Where two headings read alike, the source gives them in different places.

Test: Rat PK study #3 (ABBV-744 IV 1 mg/kg and PO 5 mg/kg)
Format: in vivo, SD rats
Details: male, Sprague-Dawley, rat, plasma, SD rats, DMSO/PEG-400/Milli-Q water formulation; for C0: read-out: C0; for MRT inf: read-out: MRTInf_obs; for Tmax: read-out: Tmax
Procedure: For the third rat pharmacokinetic study, the pharmacokinetics of ABBV-744 were assessed in male SD rats for comparison to Compound A. ABBV-744 was prepared in a formulation of 5% DMSO, 40% PEG-400, and 55% Milli-Q water (see Table 2D for formulation) and delivered to animals orally (PO) at a dose of 5 mg/kg, or intravenously (IV) at a dose of 1 mg/kg. Animals in each group (n=3) were then monitored over a 24-hour period.
Blood samples (~0.2 mL) were collected according to a schedule (IV administration: 0.033, 0.083, 0.25, 0.5, 1, 2, 4, and 8 h following the initial dosing; PO administration: 0.083, 0.25, 0.5, 1, 2, 4, 8, and 24 h following the initial dosing) by jugular vein by cannulation except for the dosing vein (for IV group), and EDTA-K2 was used as anticoagulant. Within 30 minutes of collection, the samples were centrifuged at approximately 4000 times g-force for 5 minutes at 4° C. to obtain blood plasma. The plasma samples were immediately divided into two aliquots (~75 µL each), transferred to a cryogenic vial, and stored in a freezer at −75±15° C. prior to analysis.
The concentration of ABBV-744 in plasma samples was determined by liquid chromatography-mass spectrometry (LC-MS/MS) using a Shimadzu HPLC(DGU-405; LC-40D XS CN; SIL-40C XSCN; Plate Changer CN; CTO-40C CN; and CBM-40 CN) and an AB API 5500+LC/MS/MS instrument. Samples were analyzed on an Agilent Poroshell Bonus RP 2.7 μm (50×2.1 mm) column. Solution A in the mobile phase was 95% water (0.1% formic acid) and solution B was 95% acetonitrile in water (0.1% formic acid), injection volume was 6 μL, and flow rate was 0.6 mL/min.
To prepare samples for analysis, serial concentrations were prepared by diluting the stock solution of analyte with a 50% acetonitrile in water solution. 5 μL working solutions (5, 10, 20, 50, 100, 500, 1000, 5000, and 10000 ng/mL) were added to 50 μL of the blank SD rat plasma to achieve calibration standards of ~0.5 to 1000 ng/ml (0.5, 1, 2, 5, 10, 50, 100, 500, and 1000 ng/ml) in a total volume of 55 μL. Five quality control samples at 1 ng/ml, 2 ng/ml, 5 ng/ml, 50 ng/mL, and 800 ng/ml for plasma were prepared independently of those used for the calibration curves. These QC samples were prepared on the day of analysis in the same way as calibration standards.
55 μL of standards, 55 μL of QC samples and 55 μL of unknown samples (50 μL of unknown rat plasma with 5 µL of blank solution) were added to 200 µL of acetonitrile containing IS mixture (verapamil) for precipitating protein respectively. The samples were then vortexed for 30 s. After centrifugation at 4° C., 3900 rpm for 15 min, the supernatant was diluted 3 times with water. 6 μL of diluted supernatant was injected into the LC/MS/MS system for quantitative analysis.

[1] = iv, 1 mg/kg, IV 1 mg/kg, individual animals
[2] = iv, 1 mg/kg, IV 1 mg/kg, mean of 3 animals
[3] = po, 5 mg/kg, PO 5 mg/kg, mean of 3 animals

concentration at 0.083 h [1]: 351 ng/mL
concentration at 0.083 h [2]: 337 ng/mL
concentration at 0.25 h [1]: 248 ng/mL
concentration at 0.25 h [2]: 268 ng/mL
concentration at 0.5 h [1]: 191 ng/mL
concentration at 0.5 h [2]: 203 ng/mL
concentration at 1 h [1]: 158 ng/mL
concentration at 1 h [2]: 154 ng/mL
concentration at 2 h [1]: 103 ng/mL
concentration at 2 h [2]: 110 ng/mL
concentration at 4 h [1]: 48 ng/mL
concentration at 4 h [2]: 52.9 ng/mL
concentration at 8 h [1]: 12.6 ng/mL
concentration at 8 h [2]: 15.3 ng/mL
AUC(0-inf) [1]: 669 ng·h/mL
AUC(0-t) [1]: 633 ng·h/mL
half-life [1]: 1.99 h
C0 [1]: 580 ng/mL
MRT inf [1]: 2.47 h
AUC(0-inf) [2]: 716 ng·h/mL
AUC(0-t) [2]: 668 ng·h/mL
half-life [2]: 2.12 h
C0 [2]: 613 ng/mL
MRT inf [2]: 2.65 h
concentration at 0.083 h [3]: 1.61 ng/mL
concentration at 0.25 h [3]: 19.3 ng/mL
concentration at 0.5 h [3]: 43 ng/mL
concentration at 1 h [3]: 59 ng/mL
concentration at 2 h [3]: 89 ng/mL
concentration at 4 h [3]: 127 ng/mL
concentration at 8 h [3]: 113 ng/mL
concentration at 24 h (po, 5 mg/kg, PO 5 mg/kg, 24 h, mean of 3 animals): 2.17 ng/mL
Tmax (po, 5 mg/kg, PO 5 mg/kg, individual animals): 8 h
AUC(0-t) [3]: 1730 ng·h/mL
Cmax (po, 5 mg/kg, PO 5 mg/kg, mean of 3 animals, read-out: Cmax): 132 ng/mL
Tmax [3]: 5.33 h
SMILES: CCNC(=O)c1cc2c(-c3cc(C(C)(C)O)ccc3Oc3c(C)cc(F)cc3C)cn(C)c(=O)c2[nH]1 [ABBV-744]
